Measured values: patent publication US20020161528A1, “Tool for lipophilicity determination in drug discovery basic and neutral compounds” (Pfizer Inc., priority 2001, published 2002)
Where “and” joins values, the source holds several entries; their conditions need not be identical. Equal entries are not always repeated. Where two headings read alike, the source gives them in different places.

Legend:
[1] = Reference logDoct at pH 7.4: literature shake-flask or countercurrent data, shake-vial and pH-metric determinations, averaged
[2] = pH 7.4
[3] = physchem; details: pH 7.4
[4] = literature value (ref. 22); cited from earlier work
[5] = Shake-vial logDoct, Procedure A (octanol / MOPS buffer); type: physicochemical; details: concentration decreased from 1.5 to 0.1 mg, 50:2 octanol:buffer
Description: (§1) The vials were shaken at least overnight.

[6] = Semi-automated shake-vial logDoct, Procedure B (1:1 n-octanol / phosphate buffer pH 7.4); type: physicochemical; details: duplicate determinations
Description: as §1

[7] = Table 1, own shake-vial (Procedure A/B) and/or potentiometric determinations only
[8] = Table 1, capacity factor extrapolated to 0% methanol, average of three to five determinations

logDoct [1, 7]	log k′w [2, 8]	chromatographic logD [3]	logDoct [5]	logDoct [6]	SMILES	log k′w [2]	logDoct ([1]; Table 1, average of own shake-vial/potentiometric determinations and literature references)	logDoct [4]
2.77	2.10	2.57	–	–	COc1ccc2c(c1)N(C[C@H](C)CN(C)C)c1ccccc1S2 [Methotrimeprazine]	–	–	–
−0.61	−0.15	0.04	–	–	CN1CCN(CC(=O)N2c3ccccc3C(=O)Nc3cccnc32)CC1 [Pirenzepine]	–	–	–
0.57	0.57	0.85	–	–	CNC(=NCCSCc1csc(N=C(N)N)n1)NC#N [Tiotidine]	–	–	–
0.43	0.26	0.5	–	–	NS(=O)(=O)c1cc2c(cc1Cl)NC(C(Cl)Cl)NS2(=O)=O (stereo not shown) [Trichlormethiazide]	–	–	–
0.74	0.53	0.8	–	–	Cc1ncc(-c2csc(N=C(N)N)n2)[nH]1 [Zaltidine]	–	–	–

The next lines start with the molecule.

SMILES	logDoct [1, 7]	log k′w [2, 8]	chromatographic logD [3]	logDoct [5]	logDoct [6]	log k′w [2]	logDoct ([1]; Table 1, average of own shake-vial/potentiometric determinations and literature references)	logDoct [4]
CN1CCCC1c1cccnc1 (stereo not shown) [Nicotine]	0.40	–	0.23	–	–	0.02	–	–
CNS(=O)(=O)Cc1ccc2[nH]cc(CCN(C)C)c2c1 [Sumatriptan]	–	−0.54	-0.4	–	–	–	−1.00	–
CCN(CC)CCNC(=O)c1cc(S(C)(=O)=O)ccc1OC [Tiapride]	−0.90	−0.58	-0.45	–	–	–	–	–
O=c1n(CCCN2CCN(c3cccc(Cl)c3)CC2)nc2ccccn12 [Trazodone]	2.54	2.45	2.97	–	–	–	–	–
N=C(N)NCC1COc2ccccc2O1 (stereo not shown) [guanoxan]	–	–	-0.3	−1.6 to −1.0	−0.1 and −0.3	–	–	−0.83
